These results are taken from US20260308158A1, “TARGETING RNAS ASSOCIATED WITH TAUOPATHIES WITH SMALL MOLECULES” (University of Florida Research Foundation, Incorporated, priority 2023, published 2026).

The structures appear in SMILES notation. Where only a bound is given, the exact number is not on record here.

The subject of experiment [1] is WT I17T MAPT exon 10 mini-gene luciferase reporter. Description: Luciferase reporter assay, WT I17T mutant mini-gene in HeLa cells. The format is cell-based. The settings on record: Homo sapiens, 48 h, 5 μM (highest dose), read-out: reduction of luciferase activity. The procedure:
Luciferase-reporter Assay to Study Exon 10 Alternative Splicing. The exon 10 mini-genes, both WT and DDPAC and mutant thereof, fused to firefly luciferase, have been previously described.^18 HeLa cells were seeded in 60 mm diameter dishes and incubated for 12-16 h to 70% confluency. They were then transfected with WT, WT+I17T, DDPAC, or DDPAC+I17T luciferase reporter minigenes using JetPrime (Polyplus Transfection) per the manufacturer's recommended protocol and incubated for 4 h. After transfection, the cells were collected by trypsinization and re-seeded in 96-well plates at 0.2×10^5 cells per well, followed by treatment of compounds after 4 h. Compound stocks prepared in DMSO were diluted in growth medium and added to cells with final DMSO concentration at 0.1% (v/v). After a 48 h treatment period, the cells were washed with 1× DPBS. Each well was added with a mixture of 10 μL WST-1 reagent and 90 μL of growth medium. After incubation at 37° C. for 45 min, absorbance was measured at 450 and 690 nm. A690 as background was subtracted from A450 to obtain A450′. […] The plate was incubated at room temperature for 20 min and the luminescence was measured with a […] plate reader (1000 ms integration time). The resulted luminescence was normalized to A450′.
On the technique in general: A reporter such as luciferase makes a cellular process visible.

In experiment [2] the test system is DDPAC I17T MAPT mini-gene (exon 10 splicing). Description: 4R/3R MAPT mRNA by RT-qPCR, HeLa cells transfected with DDPAC I17T mini-gene. The format is cell-based. The procedure:
RNA Isolation and Real-Time Quantitative PCR (RT-qPCR). HeLa cells were treated as described in the Luciferase Reporter assay to Study Exon 10 Alternative Splicing. LAN5 cells were seeded in 12-well plates at 0.2×10^6 cells per well, treated with compound or ASO, and incubated for 48 h. Compound stocks prepared in DMSO and ASO stocks prepared in water were diluted in growth medium and added to cells. Total RNA was extracted from cells and analyzed via RT-qPCR to determine levels of 3R and 4R tau mRNA. In brief, the cells were washed with 1×DPBS and then lysed in the well using 300 μL of Lysis Buffer provided in a Quick-RNA MiniPrep kit (Zymo Research), which was used to extract total RNA per the manufacturer's protocol including the on-column DNase I digestion. The concentration of total RNA was measured by NanoDrop 2000 (Thermo Fisher Scientific). Only samples with OD260/OD280>1.8 were carried forward for analysis. Reverse transcription (RT) was carried out on 200 ng of total RNA using a qScript cDNA synthesis kit (QuantaBio) in a total volume of 10 μL according to the manufacturer's protocol. An Applied Biosystems QS5 384-well PCR system was used to complete qPCR reactions with Power SYBR Green Master Mix (Life Technologies), 600 nM each primer (Table S3), 20 ng of cDNA (1 μL of the RT reaction), in a total volume of 33 μL. Technical triplicates (10 μL each) were aliquoted into 384-well qPCR plates (Applied biosystems, 4483285). Subsequent qPCR analysis was performed using an Applied Biosystems QS5 384-well PCR system (software v.1.3.0). 4R/3R ratio were analyzed using ΔΔCt method using Equation 2: […]
where ΔCt 4R or ΔCt 3R is the difference between the Ct values for the 4R or 3R MAPT mRNA and a housekeeping gene (18S rRNA) in total RNA from cells.
A general note: Real-time PCR tracks product formation cycle by cycle.

In experiment [3] the test system is dually labeled DDPAC MAPT SRE RNA / U1 snRNA mimic. Description: U1 snRNA mimic FRET-based quenching assay. In kind it is biochemical. The procedure:
U1 snRNA Mimic Quenching Assay. A 200 nM aliquot of dually labeled model of the DDPAC RNA (5′-FAM-[…]-BHQ-1-3′ (SEQ ID NO: 5); where FAM is 5 (6)-Carboxyfluorescein and BHQ-1 is black hole quencher) was folded in 1× Assay Buffer as described in Fluorescent Binding Affinity Measurements. Compound of interest at the indicated concentration was added, and the samples were incubated at room temperature in the dark for 15 min. A U1 snRNA mimic with sequence 5′-[…]-3′ (SEQ ID NO: 6) was then added to the samples to a final concentration of 20 μM. The fluorescence intensity of FAM was measured as a function of time for 1 h using a […] plate reader, with excitation and emission wavelengths of 485 and 525 nm, respectively.

The subject of experiment [4] is htau mice. Description: Nesting activity, htau mice. In kind it is in vivo, htau mouse. The settings on record: scale 1-5, 100 mg/kg p.o. q.o.d. The procedure:
Nesting Activity. From Day 1 to Day 20, mice were individually housed and nesting material from the previous day was removed. An intact 3.0 g nestlet was placed within each cage. Around 15 h later, the resulting nest was photographed for qualitative scoring, and the untorn nestlet was weighed if present. All nest images and weights were analyzed by a blinded individual and based on published criteria.^43 In brief, nesting is scored on a rating scale of 1-5 where if the nestlet is over 90% intact, it is given a nestlet score is 1 (Poor; FIG. 4C). When the nestlet is partially torn but >50% remains, the nestlet score is 2; a score of 3 is assigned when 50-90% of the nestlet is torn but spread around the cage and no identifiable nest site is found (Medium; FIG. 4C). When more than 90% of the nestlet is torn and the nest is identifiable but flat, the nestlet score is 4. When a near perfect nest is built and the wall is higher than the mouse's body, it is assigned a nestlet score of 5 (Good; FIG. 4C).

In general, IC50 refers to the concentration needed to halve the response being measured. Take `COc1cc(N)ncc1CCCN(C)CCCn1cnc2c3ccccc3n(C)c2c1=O` [Compound 2, 3-(3-((3-(6-amino-4-methoxypyridin-3-yl)propyl)(methyl)amino)propyl)-5-methyl-3,5-dihydro-4H-pyrimido[5,4-b]indol-4-one]: in experiment [1], the inhibition at 5 µM was ~15%. The “PSI10 (PSI of MAPT exon 10) vs vehicle” value in experiment [2] is “not WT I17T or DDPAC I17T mutant”. Also, in experiment [2] (1 at 10 μM or 2 at 1.5 μM), the “change in 4R/3R ratio (not statistically significant)” value was < 16%. Besides, the “more potent than 1 in multiple biochemical assays” value in experiment [3] (2 vs 1, multiple biochemical assays) was “at least 6 fold”. In addition, the “rate of increase of FAM signal (unfolding by U1 snRNA mimic)” value in experiment [3] (compound 10 μM, vehicle 0.49 min-1) worked out at 0.37 min⁻¹. In addition, in experiment [3] (end-point FRET assay (FIG. 15C), 2 vs 1), the “lower IC50 compared with 1” value was “around 5 fold”. For the same molecule, in experiment [3] (end-point measurement (5 min), read-out: IC50, reduction in FAM fluorescence (U1 snRNA mimic binding)), the IC50 was 900 ± 200 nM. Besides, in experiment [4], the “nesting score at Day 2” value was 2.6±1.1 and the “nesting score at Day 20” value is on record as 4.5±0.4.
